According to US11123337B2, “4-methylsulfonyl-substituted piperidine urea compounds” (MYOKARDIA, INC., priority 2015, dated 2021):

Molecular target: bovine cardiac myosin (Bos taurus, UniProt Q9BE39)
Test: Myosin activation assay (PK/LDH-coupled ATPase, bovine cardiac myofibrils)
Format: biochemical
Conditions: AC20 = concentration at which total response is increased by twenty percent
Summary of the method: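 Values are the concentrations raising the ATPase rate by 20% or 50% over DMSO, from 10-point dose responses fitted with four parameters. Rate is NADH loss at 340 nm via PK/LDH coupling, read 15 min at room temperature, in pH 6.8 PIPES with 50 μM ATP. Bovine cardiac myofibrils were held at pCa ~6 or pCa 10.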

Sequence of bovine cardiac myosin (Q9BE39 whole entry): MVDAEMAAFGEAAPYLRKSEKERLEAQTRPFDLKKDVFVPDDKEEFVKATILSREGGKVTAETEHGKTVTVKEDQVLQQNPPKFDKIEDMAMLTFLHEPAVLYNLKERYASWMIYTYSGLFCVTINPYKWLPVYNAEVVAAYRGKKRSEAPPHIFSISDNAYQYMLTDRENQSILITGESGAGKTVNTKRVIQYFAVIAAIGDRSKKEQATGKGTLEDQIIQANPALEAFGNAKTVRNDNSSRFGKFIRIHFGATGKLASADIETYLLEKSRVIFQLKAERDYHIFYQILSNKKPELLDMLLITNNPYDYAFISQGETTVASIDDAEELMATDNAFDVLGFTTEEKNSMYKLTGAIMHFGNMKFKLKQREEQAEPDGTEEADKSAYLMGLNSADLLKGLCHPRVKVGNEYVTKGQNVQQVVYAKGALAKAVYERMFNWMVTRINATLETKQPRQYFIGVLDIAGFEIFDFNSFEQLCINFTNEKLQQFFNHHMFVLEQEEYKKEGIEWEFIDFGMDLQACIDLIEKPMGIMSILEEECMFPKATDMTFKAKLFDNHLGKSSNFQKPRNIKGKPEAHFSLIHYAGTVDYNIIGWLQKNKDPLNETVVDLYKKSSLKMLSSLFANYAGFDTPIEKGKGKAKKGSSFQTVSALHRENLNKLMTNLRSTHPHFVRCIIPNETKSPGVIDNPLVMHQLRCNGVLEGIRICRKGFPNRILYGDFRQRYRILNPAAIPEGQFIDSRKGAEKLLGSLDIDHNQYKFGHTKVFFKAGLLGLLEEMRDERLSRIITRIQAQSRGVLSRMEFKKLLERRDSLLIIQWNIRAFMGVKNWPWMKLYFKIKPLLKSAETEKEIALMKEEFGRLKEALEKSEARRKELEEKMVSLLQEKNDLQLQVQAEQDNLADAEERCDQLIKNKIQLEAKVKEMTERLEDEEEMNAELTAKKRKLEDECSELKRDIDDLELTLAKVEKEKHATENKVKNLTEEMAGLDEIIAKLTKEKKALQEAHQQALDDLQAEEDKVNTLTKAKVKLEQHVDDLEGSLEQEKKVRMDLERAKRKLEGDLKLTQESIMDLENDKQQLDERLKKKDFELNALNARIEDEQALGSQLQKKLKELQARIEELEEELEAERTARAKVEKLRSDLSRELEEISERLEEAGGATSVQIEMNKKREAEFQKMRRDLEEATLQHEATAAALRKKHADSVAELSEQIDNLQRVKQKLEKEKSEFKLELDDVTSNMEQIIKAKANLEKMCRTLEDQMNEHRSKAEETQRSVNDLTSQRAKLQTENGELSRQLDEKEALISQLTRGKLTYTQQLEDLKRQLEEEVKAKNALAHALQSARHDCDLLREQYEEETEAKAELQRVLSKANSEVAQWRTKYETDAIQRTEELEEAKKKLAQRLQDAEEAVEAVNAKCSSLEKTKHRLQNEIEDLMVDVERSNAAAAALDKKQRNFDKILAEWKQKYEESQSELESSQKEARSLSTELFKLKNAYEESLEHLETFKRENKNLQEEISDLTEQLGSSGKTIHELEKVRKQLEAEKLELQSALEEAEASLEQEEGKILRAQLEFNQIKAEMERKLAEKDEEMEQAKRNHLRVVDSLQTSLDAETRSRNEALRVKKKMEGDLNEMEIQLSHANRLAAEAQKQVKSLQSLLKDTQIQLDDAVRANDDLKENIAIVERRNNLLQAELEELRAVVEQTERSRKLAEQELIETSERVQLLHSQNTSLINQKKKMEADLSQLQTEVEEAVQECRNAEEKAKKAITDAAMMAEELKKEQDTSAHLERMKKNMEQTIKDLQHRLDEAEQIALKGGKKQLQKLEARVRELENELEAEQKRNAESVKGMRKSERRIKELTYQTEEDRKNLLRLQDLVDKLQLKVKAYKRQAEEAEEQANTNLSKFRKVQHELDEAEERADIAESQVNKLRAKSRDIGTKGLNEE
Sequence of bovine cardiac myosin (P85100 whole entry partner): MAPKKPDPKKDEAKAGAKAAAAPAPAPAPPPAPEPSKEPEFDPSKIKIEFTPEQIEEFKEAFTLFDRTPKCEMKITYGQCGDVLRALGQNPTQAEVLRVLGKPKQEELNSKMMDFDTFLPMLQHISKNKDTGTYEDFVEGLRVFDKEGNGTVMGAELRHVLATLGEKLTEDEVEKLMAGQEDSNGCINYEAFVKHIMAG
Sequence of bovine cardiac myosin (Q3SZE5 whole entry partner): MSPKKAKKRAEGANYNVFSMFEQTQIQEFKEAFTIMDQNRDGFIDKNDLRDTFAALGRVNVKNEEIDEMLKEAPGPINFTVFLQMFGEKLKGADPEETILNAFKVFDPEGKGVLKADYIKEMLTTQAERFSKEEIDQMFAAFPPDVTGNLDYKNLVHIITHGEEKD

Compound | Myosin Activation (AC20)
Cn1cc(S(=O)(=O)[C@@](C)(F)C2CCN(C(=O)Nc3ccc(C(N)=O)nc3)CC2)c(C(F)F)n1 [Compound 300, (R)-5-(4-(1-((3-(difluoromethyl)-1-methyl-1H-pyrazol-4-yl)sulfonyl)-1-fluoroethyl)piperidine-1-carboxamido)picolinamide] | ++ (++ represents myosin activation value AC20 from 2 μM-5 μM)
Cc1cc(NC(=O)N2CCC(C(C)(C)S(=O)(=O)c3cn(C)nc3C(F)F)CC2)no1 [Compound 144, 4-(2-((3-(difluoromethyl)-1-methyl-1H-pyrazol-4-yl)sulfonyl)propan-2-yl)-N-(5-methylisoxazol-3-yl)piperidine-1-carboxamide] | + (+ represents myosin activation value AC20 > 5 μM)
C[C@](F)(C1CCN(C(=O)Nc2ccnnc2)CC1)S(=O)(=O)c1cccc(F)c1 [Compound 278, (R)-4-(1-fluoro-1-((3-fluorophenyl)sulfonyl)ethyl)-N-(pyridazin-4-yl)piperidine-1-carboxamide] | +++ (+++ represents myosin activation value AC20 < 2 μM)
Cc1ccccc1S(=O)(=O)C1(C2CCN(C(=O)Nc3ccncc3)CC2)CC1 [Compound 202, N-(pyridin-4-yl)-4-(1-(o-tolylsulfonyl)cyclopropyl)piperidine-1-carboxamide] | +++ (+++ represents myosin activation value AC20 < 2 μM)
O=C(Nc1ccnnc1)N1CCC(C(F)(F)S(=O)(=O)c2ccc(C3CC3)nc2)CC1 [Compound 60, 4-(((6-cyclopropylpyridin-3-yl)sulfonyl)difluoromethyl)-N-(pyridazin-4-yl)piperidine-1-carboxamide] | ++ (++ represents myosin activation value AC20 from 2 μM-5 μM)
O=C(Nc1ccnnc1)N1CCC(C(F)(F)S(=O)(=O)c2ccc(O)nc2)CC1 [Compound 88, 4-(difluoro((6-hydroxypyridin-3-yl)sulfonyl)methyl)-N-(pyridazin-4-yl)piperidine-1-carboxamide] | + (+ represents myosin activation value AC20 > 5 μM)
C[C@@H](O)c1cc(NC(=O)N2CCC(C(F)(F)S(=O)(=O)c3cn(C)nc3C(F)F)CC2)ccn1 [Compound 100, (R)-4-(((3-(difluoromethyl)-1-methyl-1H-pyrazol-4-yl)sulfonyl)difluoromethyl)-N-(2-(1-hydroxyethyl)pyridin-4-yl)piperidine-1-carboxamide] | + (+ represents myosin activation value AC20 > 5 μM)
Cn1nc(C(F)F)cc1S(=O)(=O)C(C)(C)C1CCN(C(=O)Nc2ccc(F)nc2)CC1 [Compound 106, 4-(2-((3-(difluoromethyl)-1-methyl-1H-pyrazol-5-yl)sulfonyl)propan-2-yl)-N-(6-fluoropyridin-3-yl)piperidine-1-carboxamide] | ++ (++ represents myosin activation value AC20 from 2 μM-5 μM)
O=C(Nc1ccnnc1)N1CCC(C2(S(=O)(=O)c3cccc(F)c3)CCC2)CC1 [Compound 43, 4-(1-((3-fluorophenyl)sulfonyl)cyclobutyl)-N-(pyridazin-4-yl)piperidine-1-carboxamide] | +++ (+++ represents myosin activation value AC20 < 2 μM)
CC(C)(C1CCN(C(=O)Nc2cncnc2)CC1)S(=O)(=O)c1cccc(F)c1 [Compound 132, 4-(2-((3-fluorophenyl)sulfonyl)propan-2-yl)-N-(pyrimidin-5-yl)piperidine-1-carboxamide] | + (+ represents myosin activation value AC20 > 5 μM)
Cc1cc(C(F)(F)F)ccc1S(=O)(=O)C(F)(F)C1CCN(C(=O)Nc2ccnnc2)CC1 [Compound 65, 4-(difluoro((2-methyl-4-(trifluoromethyl)phenyl)sulfonyl)methyl)-N-(pyridazin-4-yl)piperidine-1-carboxamide] | ++ (++ represents myosin activation value AC20 from 2 μM-5 μM)
CC(F)(C1CCN(C(=O)Nc2nnco2)CC1)S(=O)(=O)c1cccc(F)c1 (stereo not shown) [Compound 222, 4-(1-fluoro-1-((3-fluorophenyl)sulfonyl)ethyl)-N-(1,3,4-oxadiazol-2-yl)piperidine-1-carboxamide] | + (+ represents myosin activation value AC20 > 5 μM)
CC(F)(C1CCN(C(=O)Nc2ccc(F)nc2)CC1)S(=O)(=O)c1cccc(F)c1 (stereo not shown) [Compound 239, 4-(1-fluoro-1-((3-fluorophenyl)sulfonyl)ethyl)-N-(6-fluoropyridin-3-yl)piperidine-1-carboxamide] | ++ (++ represents myosin activation value AC20 from 2 μM-5 μM)
N#Cc1cc(C(F)(F)F)ccc1S(=O)(=O)C(F)(F)C1CCN(C(=O)Nc2ccnnc2)CC1 [Compound 3, 4-(((2-Cyano-4-(trifluoromethyl)phenyl)sulfonyl)difluoromethyl)-N-(pyridazin-4-yl)piperidine-1-carboxamide] | +++ (+++ represents myosin activation value AC20 < 2 μM)
CC(C)(C1(O)CCN(C(=O)Nc2ccnnc2)CC1)S(=O)(=O)c1cccc(F)c1 [Compound 163, 4-(2-((3-fluorophenyl)sulfonyl)propan-2-yl)-4-hydroxy-N-(pyridazin-4-yl)piperidine-1-carboxamide] | + (+ represents myosin activation value AC20 > 5 μM)
Cn1cnc(S(=O)(=O)C(F)(F)C2CCN(C(=O)Nc3ccnnc3)CC2)c1 [Compound 84, 4-(difluoro((1-methyl-1H-imidazol-4-yl)sulfonyl)methyl)-N-(pyridazin-4-yl)piperidine-1-carboxamide] | + (+ represents myosin activation value AC20 > 5 μM)
O=C(Nc1ccnnc1)N1CCC(C(F)(F)S(=O)(=O)c2ccccc2-n2cccn2)CC1 [Compound 95, 4-(((2-(1H-pyrazol-1-yl)phenyl)sulfonyl)difluoromethyl)-N-(pyridazin-4-yl)piperidine-1-carboxamide] | + (+ represents myosin activation value AC20 > 5 μM)
N#Cc1ccccc1S(=O)(=O)C1(C2CCN(C(=O)Nc3ccnnc3)CC2)CC1 [Compound 200, 4-(1-((2-cyanophenyl)sulfonyl)cyclopropyl)-N-(pyridazin-4-yl)piperidine-1-carboxamide] | ++ (++ represents myosin activation value AC20 from 2 μM-5 μM)
CCC(F)(C1CCN(C(=O)Nc2ccnnc2)CC1)S(=O)(=O)c1cccc(F)c1 (stereo not shown) [Compound 77, 4-(1-fluoro-1-((3-fluorophenyl)sulfonyl)propyl)-N-(pyridazin-4-yl)piperidine-1-carboxamide] | ++ (++ represents myosin activation value AC20 from 2 μM-5 μM)
Cc1cc(C#N)ccc1S(=O)(=O)C(F)(F)C1CCN(C(=O)Nc2ccnnc2)CC1 [Compound 52, 4-(((4-cyano-2-methylphenyl)sulfonyl)difluoromethyl)-N-(pyridazin-4-yl)piperidine-1-carboxamide] | ++ (++ represents myosin activation value AC20 from 2 μM-5 μM)
Cn1nc(C(C)(C)C)cc1S(=O)(=O)C(F)(F)C1CCN(C(=O)Nc2ccnnc2)CC1 [Compound 89, 4-(((3-(tert-butyl)-1-methyl-1H-pyrazol-5-yl)sulfonyl)difluoromethyl)-N-(pyridazin-4-yl)piperidine-1-carboxamide] | + (+ represents myosin activation value AC20 > 5 μM)
CC(F)(C1CCN(C(=O)Nc2cnns2)CC1)S(=O)(=O)c1ccc(C#N)cc1 (stereo not shown) [Compound 274, 4-(1-((4-cyanophenyl)sulfonyl)-1-fluoroethyl)-N-(1,2,3-thiadiazol-5-yl)piperidine-1-carboxamide] | +++ (+++ represents myosin activation value AC20 < 2 μM)
